Consider 30 compounds from patent EP4562003B1, “NOVEL 7-SUBSTITUTED INDOLE SULFONAMIDE DERIVATIVES” (F. Hoffmann-La Roche AG, priority 2022, dated 2024).

pIC50: −log10 of the molar value.

human GPR17 short isoform, sequence (Q13304 29-367): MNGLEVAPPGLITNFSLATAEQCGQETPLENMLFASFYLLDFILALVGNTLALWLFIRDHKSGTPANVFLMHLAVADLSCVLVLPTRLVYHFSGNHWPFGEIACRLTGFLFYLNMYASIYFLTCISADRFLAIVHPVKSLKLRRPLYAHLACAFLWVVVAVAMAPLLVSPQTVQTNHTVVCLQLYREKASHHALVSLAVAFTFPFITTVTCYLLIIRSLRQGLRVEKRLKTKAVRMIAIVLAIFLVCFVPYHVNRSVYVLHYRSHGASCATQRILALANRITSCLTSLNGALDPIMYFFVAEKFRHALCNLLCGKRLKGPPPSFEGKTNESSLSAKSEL

The experiment deals with human GPR17 short isoform (Homo sapiens, UniProt Q13304). As to the kind of experiment: GPR17 cAMP assay (TR-FRET cAMP quantification, antagonist mode). To be noted: CHO-K1 cells stably expressing human GPR17 short isoform; EC80 of agonist MDL29,951; forskolin 15µM; IBMX 0.5mM; 30 minutes at room temperature; read-out: hGPR17 cAMP IC50. In kind it is cell-based. The procedure, abridged:
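CHO-K1 cells stably expressing untagged human GPR17 short isoform, 10'000 cells/well in HBSS/10mM HEPES/0.1% BSA pH 7.4. Compounds added with EC80 MDL29,951 plus 0.5mM IBMX, then 15µM forskolin; 30 min at room temperature. cAMP read by TR-FRET after 90 min lysis; normalized to reference antagonist maximal activity, sigmoidal fit.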
For orientation: Changes in cAMP serve as a functional read-out for many G protein-coupled receptors.
As usually defined, the pIC50 is the IC50 on a negative log10 scale, so that one unit is a factor of ten. In the case of `COc1nc(NS(=O)(=O)c2c[nH]c3c(-c4ncccn4)c(Cl)ccc23)nc(OC)c1CCC#N` [Example 79, 6-chloro-N-[5-(2-cyanoethyl)-4,6-dimethoxy-pyrimidin-2-yl]-7-(2-pyrimidyl)-1H-indole-3-sulfonamide], the pIC50 is 7.23.

As for `COc1nc(NS(=O)(=O)c2c[nH]c3c(-c4ncccn4)c(Cl)ccc23)ncc1OCCF` [Example 80, 6-chloro-N-[5-(2-fluoroethoxy)-4-methoxy-pyrimidin-2-yl]-7-(2-pyrimidyl)-1H-indole-3-sulfonamide], the pIC50 was 6.59.

Regarding `COc1nc(NS(=O)(=O)c2c[nH]c3c(-c4nccnc4C)c(Cl)ccc23)nc(OC)c1OC(F)F` [Example 81, 6-chloro-N-[5-(difluoromethoxy)-4,6-dimethoxy-pyrimidin-2-yl]-7-(3-methylpyrazin-2-yl)-1H-indole-3-sulfonamide], the pIC50 was 7.51.

On to `COc1nc(NS(=O)(=O)c2c[nH]c3c(-c4cnc(C)cn4)c(Cl)ccc23)nc(OC)c1CC(F)F` [Example 82, 6-chloro-N-[5-(2,2-difluoroethyl)-4,6-dimethoxy-pyrimidin-2-yl]-7-(5-methylpyrazin-2-yl)-1H-indole-3-sulfonamide], for which the negative logarithm of the IC50 (pIC50) is 7.33.

In the case of `COc1nc(NS(=O)(=O)c2c[nH]c3c(-c4cnc(C)cn4)c(Cl)ccc23)nc(OC)c1OC(F)F` [Example 83, 6-chloro-N-[5-(difluoromethoxy)-4,6-dimethoxy-pyrimidin-2-yl]-7-(5-methylpyrazin-2-yl)-1H-indole-3-sulfonamide], the pIC50 is 7.01.

For the compound `COc1nc(NS(=O)(=O)c2c[nH]c3c(-c4cnc(C)cn4)c(Cl)ccc23)nc(OC)c1OCC(F)F` [Example 84, 6-chloro-N-[5-(2,2-difluoroethoxy)-4,6-dimethoxy-pyrimidin-2-yl]-7-(5-methylpyrazin-2-yl)-1H-indole-3-sulfonamide], the pIC50 was 7.28.

For `COc1nc(NS(=O)(=O)c2c[nH]c3c(-c4ncccn4)c(Cl)ccc23)nc(OC)c1C` [Example 85, 6-chloro-N-(4,6-dimethoxy-5-methyl-pyrimidin-2-yl)-7-(2-pyrimidyl)-1H-indole-3-sulfonamide], the pIC50 is 7.36.

In the case of `COc1nc(NS(=O)(=O)c2c[nH]c3c(-c4cncc(C)n4)c(Cl)ccc23)nc(OC)c1CC(F)F` [Example 86, 6-chloro-N-[5-(2,2-difluoroethyl)-4,6-dimethoxy-pyrimidin-2-yl]-7-(6-methylpyrazin-2-yl)-1H-indole-3-sulfonamide], the negative logarithm of the IC50 (pIC50) is 7.54.

For the compound `COc1nc(NS(=O)(=O)c2c[nH]c3c(-c4cncc(C)n4)c(Cl)ccc23)nc(OC)c1OC(F)F` [Example 87, 6-chloro-N-[5-(difluoromethoxy)-4,6-dimethoxy-pyrimidin-2-yl]-7-(6-methylpyrazin-2-yl)-1H-indole-3-sulfonamide], the negative logarithm of the IC50 (pIC50) was 7.51.

On to `COc1nc(NS(=O)(=O)c2c[nH]c3c(-c4cncc(C)n4)c(Cl)ccc23)nc(OC)c1OCC(F)F` [Example 88, 6-chloro-N-[5-(2,2-difluoroethoxy)-4,6-dimethoxy-pyrimidin-2-yl]-7-(6-methylpyrazin-2-yl)-1H-indole-3-sulfonamide], for which the negative-log IC50 (pIC50) was 7.57.

Consider `COc1nc(NS(=O)(=O)c2c[nH]c3c(-c4cncnc4)c(Cl)ccc23)nc(OC)c1OCC(F)F` [Example 89, 6-chloro-N-[5-(2,2-difluoroethoxy)-4,6-dimethoxy-pyrimidin-2-yl]-7-(5-pyrimidyl)-1H-indole-3-sulfonamide], for which the pIC50 is 7.38.

With `COc1nc(NS(=O)(=O)c2c[nH]c3c(-c4cnc(Cl)cn4)c(Cl)ccc23)nc(OC)c1OCC(F)F` [Example 90, 6-chloro-7-(5-chloropyrazin-2-yl)-N-[5-(2,2-difluoroethoxy)-4,6-dimethoxy-pyrimidin-2-yl]-1H-indole-3-sulfonamide], the pIC50 was 6.58.

Take `COc1nc(NS(=O)(=O)c2c[nH]c3c(-c4cnc(Cl)cn4)c(Cl)ccc23)nc(OC)c1CC(F)F` [Example 91, 6-chloro-7-(5-chloropyrazin-2-yl)-N-[5-(2,2-difluoroethyl)-4,6-dimethoxy-pyrimidin-2-yl]-1H-indole-3-sulfonamide]: the pIC50 was 6.65.

Turning to `COc1nc(NS(=O)(=O)c2c[nH]c3c(-c4cccc(C)n4)c(Cl)ccc23)nc(OC)c1OCC(F)F` [Example 92, 6-chloro-N-[5-(2,2-difluoroethoxy)-4,6-dimethoxy-pyrimidin-2-yl]-7-(6-methyl-2-pyridyl)-1H-indole-3-sulfonamide], the pIC50 is 7.55.

For `COc1nc(NS(=O)(=O)c2c[nH]c3c(-c4cccc(C)n4)c(Cl)ccc23)nc(OC)c1CC(F)F` [Example 93, 6-chloro-N-[5-(2,2-difluoroethyl)-4,6-dimethoxy-pyrimidin-2-yl]-7-(6-methyl-2-pyridyl)-1H-indole-3-sulfonamide], the pIC50 was 7.62.

Consider `COc1nc(NS(=O)(=O)c2c[nH]c3c(-c4cccc(C)n4)c(Cl)ccc23)nc(OC)c1OC(F)F` [Example 94, 6-chloro-N-[5-(difluoromethoxy)-4,6-dimethoxy-pyrimidin-2-yl]-7-(6-methyl-2-pyridyl)-1H-indole-3-sulfonamide], for which the pIC50 is 7.70.

In the case of `COc1nc(NS(=O)(=O)c2c[nH]c3c(-c4ccnnc4)c(Cl)ccc23)nc(OC)c1OCC(F)F` [Example 95, 6-chloro-N-[5-(2,2-difluoroethoxy)-4,6-dimethoxy-pyrimidin-2-yl]-7-pyridazin-4-yl-1H-indole-3-sulfonamide], the pIC50 was 7.34.

`COc1nc(NS(=O)(=O)c2c[nH]c3c(-c4cc(C)ncn4)c(Cl)ccc23)nc(OC)c1OCC(F)F` [Example 96, 6-chloro-N-[5-(2,2-difluoroethoxy)-4,6-dimethoxy-pyrimidin-2-yl]-7-(6-methylpyrimidin-4-yl)-1H-indole-3-sulfonamide]: the pIC50 was 7.49.

Take `COc1nc(NS(=O)(=O)c2c[nH]c3c(-c4nccnc4F)c(Cl)ccc23)nc(OC)c1CC(F)F` [Example 97, 6-chloro-N-[5-(2,2-difluoroethyl)-4,6-dimethoxy-pyrimidin-2-yl]-7-(3-fluoropyrazin-2-yl)-1H-indole-3-sulfonamide]: the negative logarithm of the IC50 (pIC50) is 7.47.

Regarding `COc1nc(NS(=O)(=O)c2c[nH]c3c(-c4nccnc4F)c(Cl)ccc23)nc(OC)c1OCC(F)F` [Example 98, 6-chloro-N-[5-(2,2-difluoroethoxy)-4,6-dimethoxy-pyrimidin-2-yl]-7-(3-fluoropyrazin-2-yl)-1H-indole-3-sulfonamide], the pIC50 is 7.46.

With `COc1nc(NS(=O)(=O)c2c[nH]c3c(-c4nccnc4F)c(Cl)ccc23)nc(OC)c1OC(F)F` [Example 99, 6-chloro-N-[5-(difluoromethoxy)-4,6-dimethoxy-pyrimidin-2-yl]-7-(3-fluoropyrazin-2-yl)-1H-indole-3-sulfonamide], the pIC50 was 7.42.

`COc1nc(NS(=O)(=O)c2c[nH]c3c(-c4ncccc4C)c(Cl)ccc23)nc(OC)c1OCC(F)F` [Example 100, 6-chloro-N-[5-(2,2-difluoroethoxy)-4,6-dimethoxy-pyrimidin-2-yl]-7-(3-methyl-2-pyridyl)-1H-indole-3-sulfonamide]: the pIC50 was 7.40.

For the compound `COc1nc(NS(=O)(=O)c2c[nH]c3c(-c4cn(C)nn4)c(Cl)ccc23)nc(OC)c1OCC(F)F` [Example 101, 6-chloro-N-[5-(2,2-difluoroethoxy)-4,6-dimethoxy-pyrimidin-2-yl]-7-(1-methyltriazol-4-yl)-1H-indole-3-sulfonamide], the negative logarithm of the IC50 (pIC50) is 7.37.

With `COc1nc(NS(=O)(=O)c2c[nH]c3c(-c4ncccc4C)c(Cl)ccc23)nc(OC)c1CC(F)F` [Example 102, 6-chloro-N-[5-(2,2-difluoroethyl)-4,6-dimethoxy-pyrimidin-2-yl]-7-(3-methyl-2-pyridyl)-1H-indole-3-sulfonamide], the pIC50 is 7.38.

Consider `COc1nc(NS(=O)(=O)c2c[nH]c3c(-c4ncccc4C)c(Cl)ccc23)nc(OC)c1OC(F)F` [Example 103, 6-chloro-N-[5-(difluoromethoxy)-4,6-dimethoxy-pyrimidin-2-yl]-7-(3-methyl-2-pyridyl)-1H-indole-3-sulfonamide], for which the pIC50 was 7.27.

Turning to `COc1nc(NS(=O)(=O)c2c[nH]c3c(-c4ncn(C)n4)c(Cl)ccc23)nc(OC)c1OCC(F)F` [Example 104, 6-chloro-N-[5-(2,2-difluoroethoxy)-4,6-dimethoxy-pyrimidin-2-yl]-7-(1-methyl-1,2,4-triazol-3-yl)-1H-indole-3-sulfonamide], the pIC50 was 6.95.

On to `COc1nc(NS(=O)(=O)c2c[nH]c3c(-c4ncc(F)cn4)c(Cl)ccc23)nc(OC)c1OCC(F)F` [Example 105, 6-chloro-N-[5-(2,2-difluoroethoxy)-4,6-dimethoxy-pyrimidin-2-yl]-7-(5-fluoropyrimidin-2-yl)-1H-indole-3-sulfonamide], for which the pIC50 is 6.66.

Take `COc1nc(NS(=O)(=O)c2c[nH]c3c(-c4cnn(C)n4)c(Cl)ccc23)nc(OC)c1OCC(F)F` [Example 106, 6-chloro-N-[5-(2,2-difluoroethoxy)-4,6-dimethoxy-pyrimidin-2-yl]-7-(2-methyltriazol-4-yl)-1H-indole-3-sulfonamide]: the negative logarithm of the IC50 (pIC50) was 7.47.

With `COc1nc(NS(=O)(=O)c2c[nH]c3c(-c4cnn(C)n4)c(Cl)ccc23)nc(OC)c1OC(F)F` [Example 107, 6-chloro-N-[5-(difluoromethoxy)-4,6-dimethoxy-pyrimidin-2-yl]-7-(2-methyltriazol-4-yl)-1H-indole-3-sulfonamide], the pIC50 was 7.12.

Regarding `COc1nc(NS(=O)(=O)c2c[nH]c3c(-c4cnn(C)n4)c(Cl)ccc23)nc(OC)c1CC(F)F` [Example 108, 6-chloro-N-[5-(2,2-difluoroethyl)-4,6-dimethoxy-pyrimidin-2-yl]-7-(2-methyltriazol-4-yl)-1H-indole-3-sulfonamide], the negative-log IC50 (pIC50) is 7.49.
